Assay results taken from patent US20010054579A1, “METHOD OF SEPARATING DIFFERENT CHEMICALS IN A SAMPLE” (priority 1997, published 2001).

Experiments:
Assay type in all cases: physicochemical
[1] = Reversed-phase liquid chromatography retention factor (log k) on pentyl bonded phase; details: C5 column; for log k in 80% CH3CN, C5: aqueous 80% acetonitrile at 40° C.
Description: (§1) The inertness and the chemical stability of the synthesized hexyl-phenyl bonded silica gel were studied by looking at the retention factors and peak shapes of pyridine, benzoic acid, 8-hydroxyquinoline, and naphthalene disclosed in T. Hanai, Encyclopedia of Analytical Science (1995), Academic Press, London, p. […] which is hereby incorporated herein by reference. The retention factor, in terms of measured parameters, is “k=(tR−tO)/tO”: where tR is retention time of the measured peak; and to is retention time of non-retained component.
(§2) The retention capacities of alkyl-phenyl bonded silica gels were compared from the retention factors for alkylbenzenes and polycyclic aromatic hydrocarbons (PAH).
(§3) […] The log k values were used for the analysis of hydrophobicity of bonded phases using van der Waals volumes of analytes as the standard.
(§4) The liquid chromatograph was a model HP1090 from Hewlett-Packard (Palo Alto, Calif. USA), and the chemically-bonded silica gel columns, —C18, —C8 and —C5, —C6Ph, —C3Ph, 15 cm×4.6 mm I.D., were from Phenomenex Inc. (Torrance, Calif. USA). Chemicals used were from Aldrich and ChemService. HPLC grade acetonitrile and water were from Fisher Scientific (Tustin, Calif. USA).

[2] = Reversed-phase liquid chromatography retention factor (log k) on octyl bonded phase; details: C8 column; for log k in 80% CH3CN, C8: aqueous 80% acetonitrile at 40° C.
Description: as §1, §2, §3, §4

[3] = Reversed-phase liquid chromatography retention factor (log k) on octadecyl bonded phase; details: C18 column; for log k in 80% CH3CN, C18: aqueous 80% acetonitrile at 40° C.
Description: as §1, §2, §3, §4

[4] = Reversed-phase liquid chromatography retention factor (log k) on propyl-phenyl bonded phase; details: C3Ph column; for log k in 80% CH3CN, C3Ph: aqueous 80% acetonitrile at 40° C.
Description: as §1, §2, §3, §4

[5] = Reversed-phase liquid chromatography retention factor (log k) on hexyl-phenyl bonded phase; details: C6Ph column; for log k in 80% CH3CN, C6Ph: aqueous 80% acetonitrile at 40° C.
Description: as §1, §2, §3, §4

Structure (SMILES) | log k in 70% CH3CN, C5 [1] | log k in 70% CH3CN, C8 [2] | log k in 70% CH3CN, C18 [3] | log k in 70% CH3CN, C3Ph [4] | log k in 70% CH3CN, C6Ph [5] | log k in 80% CH3CN, C5 [1] | log k in 80% CH3CN, C8 [2] | log k in 80% CH3CN, C18 [3] | log k in 80% CH3CN, C3Ph [4] | log k in 80% CH3CN, C6Ph [5]
c1ccc2c(c1)-c1cccc3c1c-2cc1ccccc13 [Benzo(b)fluoranthene] | 0.741 | 0.943 | 1.325 | 0.714 | 0.970 | – | – | – | – | –
CCCCCCCCc1ccccc1 [Octylbenzene] | 1.144 | 1.318 | 1.673 | 0.947 | 1.095 | 0.906 | 1.063 | 1.356 | 0.589 | 0.757
c1ccccc1 [Benzene] | 0.209 | 0.281 | 0.340 | 0.167 | 0.230 | – | – | – | – | –
c1ccc2c(c1)ccc1cc3c(ccc4ccccc43)cc12 [Dibenzo(a,h)anthracene] | 0.803 | 1.032 | 1.479 | 0.806 | 1.071 | – | – | – | – | –
c1ccc2ccccc2c1 [Naphthalene] | 0.410 | 0.486 | 0.582 | 0.305 | 0.470 | – | – | – | – | –
CCCCCc1ccccc1 [Pentylbenzene] | 0.772 | 0.908 | 1.134 | 0.646 | 0.758 | 0.567 | 0.680 | 0.858 | 0.350 | 0.480
CCCCc1ccccc1 [Butylbenzene] | 0.653 | 0.776 | 0.963 | 0.548 | 0.648 | 0.462 | 0.561 | 0.702 | 0.274 | 0.391
CCCCCCCCCc1ccccc1 [Nonylbenzene] | 1.271 | 1.457 | – | 1.046 | 1.204 | 1.022 | 1.193 | 1.528 | 0.668 | 0.849
CCCCCCCCCCc1ccccc1 [Decylbenzene] | 1.400 | – | – | 1.146 | 1.313 | 1.139 | 1.324 | 1.697 | 0.748 | 0.941
c1ccc2c(c1)cc1ccc3cccc4ccc2c1c34 [Benzo(a)pyrene] | 0.755 | 0.071 | 1.375 | 0.733 | 1.009 | – | – | – | – | –
c1ccc2cc3c(cc2c1)-c1cccc2cccc-3c12 [Benzo(k)fluoranthene] | 0.741 | 0.959 | 1.347 | 0.726 | 0.982 | – | – | – | – | –
c1ccc2cc3ccccc3cc2c1 [Anthracene] | 0.562 | 0.688 | 0.894 | 0.490 | 0.679 | – | – | – | – | –
c1ccc2c(c1)-c1cccc3cccc-2c13 [Fluoranthene] | 0.599 | 0.747 | 0.989 | 0.535 | 0.746 | – | – | – | – | –
C1=Cc2cccc3cccc1c23 [Acenaphthylene] | 0.450 | 0.540 | 0.663 | 0.364 | 0.521 | – | – | – | – | –
c1cc2ccc3cccc4ccc(c1)c2c34 [Pyrene] | 0.614 | 0.777 | 1.038 | 0.553 | 0.778 | – | – | – | – | –
c1ccc2cc3c(ccc4ccccc43)cc2c1 [Benzo(a)anthracene] | 0.692 | 0.860 | 1.177 | 0.647 | 0.878 | – | – | – | – | –
CCCc1ccccc1 [Propylbenzene] | 0.537 | 0.644 | 0.800 | 0.449 | 0.538 | 0.362 | 0.442 | 0.548 | 0.196 | 0.303
CCc1ccccc1 [Ethylbenzene] | 0.417 | 0.513 | 0.628 | 0.348 | 0.428 | 0.258 | 0.324 | 0.394 | 0.121 | 0.215
c1cc2ccc3ccc4ccc5cccc6c(c1)c2c3c4c56 [Benzo(g,h,i)perylene] | 0.822 | 1.067 | – | 0.799 | 1.118 | – | – | – | – | –
c1ccc2c(c1)ccc1c3ccccc3ccc21 [Chrysene] | 0.673 | 0.842 | 1.160 | 0.635 | 0.869 | – | – | – | – | –
CCCCCCCc1ccccc1 [Heptylbenzene] | 1.019 | 1.181 | 1.491 | 0.851 | 0.985 | 0.794 | 0.937 | 1.188 | 0.512 | 0.667
c1ccc2c(c1)Cc1ccccc1-2 [Fluorene] | 0.527 | 0.629 | 0.794 | 0.436 | 0.602 | – | – | – | – | –
c1cc2c3c(cccc3c1)CC2 [Acenaphthene] | – | 0.629 | 0.814 | 0.447 | 0.616 | – | – | – | – | –
c1ccc2c(c1)ccc1ccccc12 [Phenanthrene] | 0.538 | 0.660 | 0.854 | 0.468 | 0.655 | – | – | – | – | –
CCCCCCc1ccccc1 [Hexylbenzene] | 0.894 | 1.043 | 1.310 | 0.747 | 0.871 | 0.679 | 0.806 | 1.021 | 0.430 | 0.572
c1ccc2c(c1)-c1ccc3ccc4cccc5cc-2c1c3c45 [Indeno(1,2,3 cd)pyrene] | 0.822 | 1.067 | – | 0.803 | 1.102 | – | – | – | – | –
